Assay results: publication PMC3372625 (Journal of Controlled Release, 2012)

Legend:
H9C2 cells [1] = experiment: Reactive oxygen species; type: cell-based; details: various concentrations of CoCl2; figure 2b
H9C2 cells [2] = experiment: Cell viability; type: cell-based; details: in the presence of CoCl2; figure 2c
cells = details: cited from earlier work

Compound | generation of ROS (H9C2 cells [1]) | CoCl2 toxicity (cell viability) (H9C2 cells [2]) | cytotoxicity (cells)
[Cl][Co][Cl] [CoCl2, cobalt chloride] | dependent on the concentration of CoCl2 up to 25 μmol | no artifact caused by CoCl2 toxicity | –
Branched poly(ethylenimine) [PEI] | – | – | less than 10%
